Patent publication US20250195556A1, “COMPOSITIONS, KITS, AND METHODS TO INDUCE ACQUIRED CYTORESISTANCE USING STRESS PROTEIN INDUCERS” (FRED HUTCHINSON CANCER RESEARCH CENTER, priority 2014, published 2025)
Values joined by “and” are separate entries in the source; they are usually repeats but may differ in a detail not shown here. Identical values can stand only once.

Assays:
[1] = system: IL-10; assay: Cardiac IL-10 mRNA and protein after IV N-Mgb, SnPP or both; assay type: in vivo, mice; conditions: for Cardiac mRNA: IL-10: control 0.36
Description: (§1) Thirty-two mice were divided into 4 equal groups: (1) control mice; (2) mice treated with 1 mg of N-Mgb injection (as a bolus through the tail vein); (3) mice treated with […] of SnPP (via tail vein); and (4) mice treated with combined N-Mgb 1 SnPP. After either 4 hours (n=16) or 18 hours (n=16), the mice were deeply anesthetized with pentobarbital (50 mg/kg), the abdomen was opened through a midline abdominal incision, and the kidneys were removed. To determine potential effects on extrarenal organs, a liver lobe and the heart were also removed. The tissues were iced and then extracted for protein and RNA (RNeasy Plus Mini; Qiagen, Valencia, California) and subjected to enzyme linked immunosorbent assay (ELISA) and reverse transcriptase polymerase chain reaction (RT-PCR) for HO-1, haptoglobin, and IL-10 protein and messenger RNAs (mRNAs). Zager et al. J Am Soc Nephrol 2014; 25:998-1012; Zager et al. Am J Physiol 2012; 303: F139-48. As an assessment of renal function, control mice and the 18 hour after N-Mgb+SnPP-treated mice had blood urea nitrogen (BUN) and plasma creatinine levels measured. Additionally, transverse 10% formalin fixed kidney sections ([…]) were cut and stained with hematoxylin and eosin (H&E) and periodic acid Schiff (PAS) to further assess potential injury.

[2] = system: haptoglobin; assay: Cardiac haptoglobin mRNA and protein after IV N-Mgb, SnPP or both; assay type: in vivo, mice; conditions: for Cardiac mRNA: Haptoglobin: control 0.31; for Cardiac protein: Haptoglobin: control 15.6
Description: as §1

[3] = system: Male CD-1 mice; assay: Maleate model of AKI (FeS, SnPP, FeS+SnPP); assay type: in vivo; conditions: 1 mg FeS or 1 μmole SnPP IV alone 18 hrs before maleate
Source text: Methods. Male CD-1 mice (25-40 grams) Charles River, Wilmington, MA) were used for all experiments. They were housed under standard vivarium conditions with free food and water access. All experiments were approved by the Fred Hutchinson Cancer Research Center IACUC in accordance with NIH guidelines.
Effects of Fe sucrose (FeS)/tin protoporphyrin (SnPP) on AKI severity. Maleate model of AKI. When injected into rodents, maleate undergoes relatively selective proximal tubule cell uptake via organic anion transporters. Once intracellular accumulation occurs, maleate is a preferred substrate for succinyl-CoA: 3-oxoacid CoA transferase. […] Ample levels of CoA are essential for fatty acid “activation”, allowing for their subsequent metabolism through the Krebs cycle, yielding ATP. In the absence of this process, proximal tubule ATP depletion and cell injury result. Additionally, maleate conjugates the sulfhydryl group of glutathione (GSH), culminating in GSH depletion and potential oxidant tubular stress.
The following experiment tested whether FeS, SnPP or combined FeS+SnPP can mitigate this form of acute kidney injury (AKI). […] The severity of kidney injury was assessed by determining plasma blood urea nitrogen (BUN) and plasma creatinine (PCr) concentrations.

[4] = Berglund et al. Hepatology 1988; cited from earlier work
[5] = system: HO-1; assay: Liver HO-1 mRNA and protein after IV N-Mgb, SnPP or both; assay type: in vivo, mice; conditions: for Liver mRNA: HO-1: control 1.1; for Liver protein: HO-1 protein: control 10.2
Description: as §1

[6] = Plasma LDH 4 hr after IV test agents (marker of liver, kidney, lung and heart injury); assay type: in vivo, mice; conditions: 4 hr IV
[7] = system: haptoglobin; assay: Renal cortical haptoglobin mRNA and protein after IV N-Mgb, SnPP or both; assay type: in vivo, mice
Source text: (§2) Cytoresistance-inducing reagents. […] (#Mb0360; Sigma) was used as the primary cytoresistance-inducing agent. However, because myoglobin (Mgb) has an inherent nephrotoxic potential (particularly under conditions of volume depletion and aciduria), two approaches were used to mitigate Mgb's potential adverse effects. First, the Mgb was converted into a nitrited form by the addition of equimolar amount of sodium (Na) nitrite. In this regard, nitrite is an ambidentate molecule that directly binds 1:1 to myoglobin Fe either via its oxygen or nitrogen component. Cotton et al. Advanced inorganic chemistry. Hobocken, NJ: Wiley-Interscience, 1999:1355; Silaghi-Dumitrescu et al. Nitric Oxide 2014; 42 C: 32-9. […] Rassaf et al. Circ Res 2014; 114:1601-10; Totzeck et al. Circulation 2012; 126:325-34 [J Clin Invest 1992; 89:989-95]; Totzeck et al. PLOS One 2014; 22: e105951; Hendgen-Cotta et al. Proc Natl Acad Sci USA 2008; 105:10256-61.
as §1

[8] = system: HO-1; assay: Renal cortical HO-1 mRNA and protein after IV N-Mgb, SnPP or both; assay type: in vivo, mice
Source text: as §2, §1

[9] = system: HO-1; assay: Cardiac HO-1 mRNA and protein after IV N-Mgb, SnPP or both; assay type: in vivo, mice; conditions: for Cardiac mRNA: HO-1: control 0.07
Description: as §1

## C=Cc1c2[n-]c(c1C)/C=c1\[n-]/c(c(C)c1C=C)=C\c1[n-]c(c(CCC(=O)O)c1C)/C=c1\[n-]c(c(C)c1CCC(=O)O)=C2.[Sn+4] [SnPP, tin protoporphyrin, reference compound]
[1]; 4 h after Rx
  Cardiac mRNA: IL-10: 0.58 ± 0.16
[1]; 4 h after Rx, control 8.1
  Cardiac protein: IL-10: 15.8 ± 10^
[1]; 18 h after Rx
  Cardiac mRNA: IL-10: 0.53 ± 0.10
[1]; 18 h after Rx, control 8
  Cardiac protein: IL-10: 23.4 ± 14^
[2]; 4 h after Rx
  Cardiac mRNA: Haptoglobin: 0.52 ± 0.21
  Cardiac protein: Haptoglobin: 19.1 ± 2.1
[2]; 18 h after Rx
  Cardiac mRNA: Haptoglobin: 0.59 ± 0.17
  Cardiac protein: Haptoglobin: 96.1 ± 36.2
[3]
  Severity of maleate-induced renal injury (BUN, PCr): Neither SnPP alone nor FeS alone significantly altered
[4]
  half-life: 2 to 4 h
[5]; 4 h after Rx
  Liver mRNA: HO-1: 3.15 ± 0.25
  Liver protein: HO-1 protein: 7.4 ± 0.7
[5]; 18 h after Rx
  Liver mRNA: HO-1: 2.56 ± 0.21
  Liver protein: HO-1 protein: 18 ± 2.5
[6]; carrier 4.43
  Plasma LDH, Average: 4.51 Absorbance U LDH/ml
[6]; individual subjects
  Plasma LDH: 5.00 Absorbance U LDH/ml and 3.23 Absorbance U LDH/ml and 4.54 Absorbance U LDH/ml and 5.29 Absorbance U LDH/ml
[7]; 4 h after Rx, control 0.20
  Kidney mRNA: Haptoglobin: 0.19 ± 0.01
[7]; 4 h after Rx, control 7.9
  Kidney protein: Haptoglobin: 13.1 ± 1.3
[7]; 18 h after Rx, control 0.20
  Kidney mRNA cortex: Haptoglobin: 0.23 ± 0.08
[7]; 18 h after Rx, control 10.3
  Kidney protein: Haptoglobin: 53.5 ± 17.2
[8]; 4 h after Rx, control 0.61
  Kidney mRNA: HO-1: 4.38 ± 0.28
[8]; 4 h after Rx, control 13.3
  Kidney HO-1 protein: 22.9 ± 2.6
[8]; 18 h after Rx, control 0.61
  Kidney mRNA cortex: HO-1: 0.63 ± 0.06
[8]; 18 h after Rx, control 13.3
  Kidney protein: HO-1: 18 ± 2
[9]; 4 h after Rx
  Cardiac mRNA: HO-1: 0.14 ± 0.01
[9]; 18 h after Rx
  Cardiac mRNA: HO-1: 0.09 ± 0.03
[9]; 18 h after Rx, control 1.5
  Cardiac protein: HO-1: 2.67 ± 0.4
